# Literature values in PubChem BioAssay AID1259409 (Chemical Carcinogenesis Research Information System (CCRIS), 2018).
# Tested on: rodent chemically induced tumor inhibition, incidence and multiplicity
# Test: CCRIS tumor inhibitor studies
# Settings: for tumour outcome (control, treated, inhibition, significance): Promoter: NONE USED
structure (smiles),measurement,setting,value
NC(N)=S,outcome,"Carcinogen: N-BIS-(2-HYDROXYPROPYL)NITROSAMINE [53609-64-6], Dose [Inhibitor]: 0, 0.2% IN DIET 4 WK BEGINNING 1 WK POST CARCINOGEN DOSE (STUDY DURATION: 5 WK), Route [Inhibitor]: ORAL, Species: RAT, Strain/Sex: F344/DUCRJ/MALE, Target Tissue: Type of Lesion: THYROID GLAND: ADENOMATOUS GROWTH PATTERN, Dose [Carcinogen]: 2800 MG/KG BW ONCE (STUDY DURATION: 5 WK), Promoter: NONE","0%, 30%, -100%, not significant"
[Mo].[Na+].[Na+].[O-2].[O-2].[O-2].[O-2],"tumour outcome (control, treated, inhibition, significance)","Carcinogen: N-METHYL-N-BENZYLNITROSAMINE, 937-40-6, Dose [Inhibitor]: 0.32 (BASAL MOLYBDENUM LEVEL), 2 PPM (HIGH MOLYBDENUM LEVEL) IN DIET BEGINNING 4 WK PRIOR TO CARCINOGEN DOSE AND CONTINU, Route [Inhibitor]: ORAL, Species: RAT, Strain/Sex: F344/MALE, Target Tissue: Type of Lesion: ESOPHAGUS: CARCINOMA, Dose [Carcinogen]: 2.5 MG/KG IN 0.2 ML OLIVE OIL 1/WK FOR 20 WK","30/41 (73%), 20/45 (44%), 40%, p<0.01"
same,"tumour outcome (control, treated, inhibition, significance)","Carcinogen: N-METHYL-N-NITROSOUREA, 684-93-5, Dose [Inhibitor]: 20 PPM IN DRINKING WATER CONCURRENTLY WITH THE CARCINOGEN (STUDY DURATION: 56 WK), Route [Inhibitor]: ORAL, Species: RAT, Strain/Sex: BD6/MALE, Target Tissue: Type of Lesion: INTESTINE: ADENOCARCINOMA, Dose [Carcinogen]: 25 MG/KG 2/WK FOR 15 WK","6/20 (30%), 1/14 (7%), 77%, p>0.05"
CC(O)CCC(=O)c1ccoc1 (configuration not stated),"tumour outcome (control, treated, inhibition, significance)","Carcinogen: 4-(METHYLNITROSAMINO)-1-(3-PYRIDYL)-1-BUTANONE, 64091-91-4, Dose [Inhibitor]: 0, 1 UMOL IN 0.1 ML CORN OIL ONCE 2 HR PRIOR TO CARCINOGEN DOSE (STUDY DURATION: 16 WK), Route [Inhibitor]: GAVAGE, Species: MOUSE, Strain/Sex: STRAIN-A/FEMALE, Target Tissue: Type of Lesion: LUNG: ADENOMA, Dose [Carcinogen]: 10 UMOL IN 0.1 ML SALINE ONCE","100%, 100%, 0%, not significant"
O=C(CC(=O)c1ccccc1)c1ccccc1,"tumour outcome (control, treated, inhibition, significance)","Carcinogen: 7,12-DIMETHYLBENZ[A]ANTHRACENE, 57-97-6, Dose [Inhibitor]: 0, 1% IN DIET FOR 22 WK BEGINNING 2 WK PRIOR TO CARCINOGEN DOSE (STUDY DURATION: 22 WK), Route [Inhibitor]: ORAL, Species: MOUSE, Strain/Sex: SENCAR/FEMALE, Target Tissue: Type of Lesion: LYMPHATIC SYSTEM: LYMPHOMA OR LEUKEMIA, Dose [Carcinogen]: 1 MG IN 0.1 ML CORN OIL 1/WK FOR 5 WK","45%, 0%, 100%, p<0.05"
same,"tumour outcome (control, treated, inhibition, significance)","Carcinogen: 7,12-DIMETHYLBENZ[A]ANTHRACENE, 57-97-6, Dose [Inhibitor]: 0, 1% IN DIET FOR 22 WK BEGINNING 2 WK PRIOR TO CARCINOGEN DOSE (STUDY DURATION: 22WK), Route [Inhibitor]: ORAL, Species: MOUSE, Strain/Sex: SENCAR/FEMALE, Target Tissue: Type of Lesion: MAMMARY GLAND: TUMOR, Dose [Carcinogen]: 1 MG IN 0.1 ML CORN OIL 1/WK FOR 5 WK","68%, 2%, 97%, p<0.05"
same,"tumour outcome (control, treated, inhibition, significance)","Carcinogen: 7,12-DIMETHYLBENZ[A]ANTHRACENE, 57-97-6, Dose [Inhibitor]: 0, 1% IN DIET FOR 22 WK BEGINNING 2 WK PRIOR TO CARCINOGEN DOSE (STUDY DURATION: 22WK), Route [Inhibitor]: ORAL, Species: MOUSE, Strain/Sex: SENCAR/FEMALE, Target Tissue: Type of Lesion: OVARY:TUMOR, Dose [Carcinogen]: 1 MG IN 0.1 ML CORN OIL 1/WK FOR 5 WK","20%, 0%, 100%, p<0.05"
same,outcome,"Carcinogen: 7,12-Dimethylbenz[a]anthracene, 57-97-6, Dose [Inhibitor]: 0, 10 umol 3x/wk for 10 wk, Route [Inhibitor]: Dermal, Species: Mouse, Strain/Sex: CD-1/Female, Target Tissue: Type of Lesion: Skin: tumor, Dose [Carcinogen]: 200 nmol in 200 ul acetone, once, study duration 11 wk, Promoter: Mirex, 2385-85-5","37%, 15%, not significant"
same,outcome,"Carcinogen: 7,12-Dimethylbenz[a]anthracene, 57-97-6, Dose [Inhibitor]: 0, 10 umol 3x/wk for 14 wk, Route [Inhibitor]: Dermal, Species: Mouse, Strain/Sex: CD-1/Female, Target Tissue: Type of Lesion: Skin: tumor, Dose [Carcinogen]: 200 nmol in 200 ul acetone, once, study duration 15 wk, Promoter: Mirex, 2385-85-5","60%, 40%, not significant"
same,outcome,"Carcinogen: 7,12-Dimethylbenz[a]anthracene, 57-97-6, Dose [Inhibitor]: 0, 10 umol 3x/wk for 18 wk, Route [Inhibitor]: Dermal, Species: Mouse, Strain/Sex: CD-1/Female, Target Tissue: Type of Lesion: Skin: tumor, Dose [Carcinogen]: 200 nmol in 200 ul acetone, once, study duration 19 wk, Promoter: Mirex, 2385-85-5","80%, 70%, not significant"
same,outcome,"Carcinogen: 7,12-Dimethylbenz[a]anthracene, 57-97-6, Dose [Inhibitor]: 0, 1% in diet for 22 wk beginning 2 wk prior to carcinogen dose (study duration: 22wk), Route [Inhibitor]: Oral, Species: Mouse, Strain/Sex: Sencar/Female, Target Tissue: Type of Lesion: Mammary Gland: Tumor, Dose [Carcinogen]: 1 mg in 0.1 ml corn oil 1/wk for 5 wk, Promoter: None","3%, 0%, 100% at 3 wk; 38%, 0%, 100% at 9 wk; 55%, 0% at 13 wk; 68%, 3%, 96% at 2"
CN1[C@@H]2CC[C@H]1CC(OC(=O)C(CO)c1ccccc1)C2 (some centres not stated),"tumour outcome (control, treated, inhibition, significance)","Carcinogen: N-METHYL-N'-NITRO-N-NITROSOGUANIDINE, 70-25-7, Dose [Inhibitor]: 0, 0.5 MG/KG IN OLIVE OIL SUSPENSION 1/D BEGINNING 1 WK POST LAST CARCINOGEN DOSE AND CONTINUING FOR DURATION OF STUDY (, Species: RAT, Strain/Sex: WISTAR/MALE, Target Tissue: Type of Lesion: GLANDULAR STOMACH: ADENOCARCINOMA, Dose [Carcinogen]: 50 UG/ML IN DRINKING WATER FOR 25 WK","15/18 (83%), 15/19 (79%), 5%, not calculated"
CCCCCc1ccccc1,"tumour outcome (control, treated, inhibition, significance)","Carcinogen: 4-(METHYLNITROSAMINO)-1-(3-PYRIDYL)-1-BUTANONE, 64091-91-4, Dose [Inhibitor]: 0, 25 UMOL IN 0.1 ML CORN OIL ONCE 2 HR PRIOR TO CARCINOGEN DOSE (STUDY DURATION: 16 WK), Route [Inhibitor]: GAVAGE, Species: MOUSE, Strain/Sex: STRAIN-A/FEMALE, Target Tissue: Type of Lesion: LUNG: TUMOR, Dose [Carcinogen]: 10 UMOL IN 0.1 ML SALINE ONCE","100%, 95%, 5%, not significant"
N[C@@H](CCC(=O)N[C@@H](CS)C(=O)NCC(=O)O)C(=O)O,"tumour outcome (control, treated, inhibition, significance)","Carcinogen: TRANS-5-AMINO-3-[2-(5-NITRO-2-FURYL)VINYL]-1,2,4-OXADIAZOLE;SQL8506, 28754-68-9, Carcinogen: TRANS-5-AMINO-3-[2-(5-NITRO-2-FURYL)VINYL]-1,2,4-OXADIAZOLE;SQL8506, 28754-68-9, Dose [Inhibitor]: 400 MG/KG 16 HR BEFORE THE 1ST CARCINOGEN DOSE FOLLOWED BY ADDITIONAL INJECTIONS IMMEDIATELY BEFORE EACH DOSE OF CARCINO, Route [Inhibitor]: INTRAPERITONEAL, Species: MOUSE, Strain/Sex: CD-1/FEMALE, Target Tissue: Type of Lesion: HEMATOPOIETIC SYSTEM: MYELOID LEUKEMIA, Dose [Carcinogen]: 1 G/KG 2/D FOR 5 D EVERY 4 WK FOR 3 COURSES OF TREATMENT","7/137 (5%), 2/35 (6%), -20%, not calculated"
same,"tumour outcome (control, treated, inhibition, significance)","Carcinogen: TRANS-5-AMINO-3-[2-(5-NITRO-2-FURYL)VINYL]-1,2,4-OXADIAZOLE;SQL8506, 28754-68-9, Carcinogen: TRANS-5-AMINO-3-[2-(5-NITRO-2-FURYL)VINYL]-1,2,4-OXADIAZOLE;SQL8506, 28754-68-9, Dose [Inhibitor]: 400 MG/KG 16 HR BEFORE THE 1ST CARCINOGEN DOSE FOLLOWED BY ADDITIONAL INJECTIONS IMMEDIATELY BEFORE EACH DOSE OF CARCINO, Route [Inhibitor]: INTRAPERITONEAL, Species: MOUSE, Strain/Sex: CD-1/FEMALE, Target Tissue: Type of Lesion: LYMPHOID TISSUE: NONTHYMIC LYMPHOMA, Dose [Carcinogen]: 1 G/KG 2/D FOR 5 D EVERY 4 WK FOR 3 COURSES OF TREATMENT","8/137 (6%), 3/35 (8%), -33%, not calculated"
same,"tumour outcome (control, treated, inhibition, significance)","Carcinogen: TRANS-5-AMINO-3-[2-(5-NITRO-2-FURYL)VINYL]-1,2,4-OXADIAZOLE;SQL8506, 28754-68-9, Carcinogen: TRANS-5-AMINO-3-[2-(5-NITRO-2-FURYL)VINYL]-1,2,4-OXADIAZOLE;SQL8506, 28754-68-9, Dose [Inhibitor]: 400 MG/KG 16 HR BEFORE THE 1ST CARCINOGEN DOSE FOLLOWED BY ADDITIONAL INJECTIONS IMMEDIATELY BEFORE EACH DOSE OF CARCINO, Route [Inhibitor]: INTRAPERITONEAL, Species: MOUSE, Strain/Sex: CD-1/FEMALE, Target Tissue: Type of Lesion: LYMPHOID TISSUE: THYMIC LYMPHOMA, Dose [Carcinogen]: 1 G/KG 2/D FOR 5 D EVERY 4 WK FOR 3 COURSES OF TREATMENT","22/137 (16%), 2/35 (6%), 62%, not calculated"
same,"tumour outcome (control, treated, inhibition, significance)","Carcinogen: TRANS-5-AMINO-3-[2-(5-NITRO-2-FURYL)VINYL]-1,2,4-OXADIAZOLE;SQL8506, 28754-68-9, Carcinogen: TRANS-5-AMINO-3-[2-(5-NITRO-2-FURYL)VINYL]-1,2,4-OXADIAZOLE;SQL8506, 28754-68-9, Dose [Inhibitor]: 400 MG/KG 16 HR BEFORE THE 1ST CARCINOGEN DOSE FOLLOWED BY ADDITIONAL INJECTIONS IMMEDIATELY BEFORE EACH DOSE OF CARCINO, Route [Inhibitor]: INTRAPERITONEAL, Species: MOUSE, Strain/Sex: CD-1/FEMALE, Target Tissue: Type of Lesion: STOMACH: SQUAMOUS CARCINOMA, Dose [Carcinogen]: 1 G/KG 2/D FOR 5 D EVERY 4 WK FOR 3 COURSES OF TREATMENT","60/137 (44%), 12/35 (34%), 23%, not calculated"
